In patent publication US20260028336A1 (Arcus Biosciences, Inc., priority 2022, published 2026):

Tests used:
[1] = molecular target: T1, Cbl-b (Homo sapiens, UniProt Q13191); test: Cbl-b probe displacement HTRF binding assay; settings: 0.4 nM biotinylated Cbl-b, 150 nM BODIPY probe
T1 construct: biotin (biotinylated)
In short: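 Biotinylated Cbl-b was preincubated with compound for 60 min at room temperature in HEPES/NaCl/Triton/TCEP/BSA buffer. BODIPY probe was added for 15 min, followed by streptavidin-terbium, and the HTRF signal was read. Displacement was normalised to DMSO and no-protein controls, and affinity was obtained from a four-parameter dose-response fit.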

[2] = test system: Jurkat cells; test: IL-2 secretion assay in CD3/CD28-activated Jurkat cells (AlphaLISA); type: cell-based; settings: Homo sapiens, CD3/CD28 T Cell Activator, 24 h, IL-2 AlphaLISA
Method: Certain compounds were also evaluated in an IL-2 secretion assay. On the day of the assay, a 16 point, 1:2 master serial dilution of each compound was prepared in Opti-MEM to span a final concentration range of 10 μM to 300 pM. Assays were set up in CORNING® tissue culture-treated 384-well microplates containing 60 nL of each dilution. […] 50,000 cells/well and added to the compound plates. After a short spin (1200 rpm for 1 min), the plates were incubated at 37° C. for 1 hour. The cells were activated by adding 15 μL of IMMUNOCULT™ Human CD3/CD28 T Cell Activator ([…] Technologies) diluted in Opti-MEM. […] The AiphaLISA signal was measured using an EnVision plate reader (PerkinElmer). EC50 values were determined by fitting the data to a standard 4-parameter logistic equation.

T1 sequence (Q13191 whole entry, species assumed): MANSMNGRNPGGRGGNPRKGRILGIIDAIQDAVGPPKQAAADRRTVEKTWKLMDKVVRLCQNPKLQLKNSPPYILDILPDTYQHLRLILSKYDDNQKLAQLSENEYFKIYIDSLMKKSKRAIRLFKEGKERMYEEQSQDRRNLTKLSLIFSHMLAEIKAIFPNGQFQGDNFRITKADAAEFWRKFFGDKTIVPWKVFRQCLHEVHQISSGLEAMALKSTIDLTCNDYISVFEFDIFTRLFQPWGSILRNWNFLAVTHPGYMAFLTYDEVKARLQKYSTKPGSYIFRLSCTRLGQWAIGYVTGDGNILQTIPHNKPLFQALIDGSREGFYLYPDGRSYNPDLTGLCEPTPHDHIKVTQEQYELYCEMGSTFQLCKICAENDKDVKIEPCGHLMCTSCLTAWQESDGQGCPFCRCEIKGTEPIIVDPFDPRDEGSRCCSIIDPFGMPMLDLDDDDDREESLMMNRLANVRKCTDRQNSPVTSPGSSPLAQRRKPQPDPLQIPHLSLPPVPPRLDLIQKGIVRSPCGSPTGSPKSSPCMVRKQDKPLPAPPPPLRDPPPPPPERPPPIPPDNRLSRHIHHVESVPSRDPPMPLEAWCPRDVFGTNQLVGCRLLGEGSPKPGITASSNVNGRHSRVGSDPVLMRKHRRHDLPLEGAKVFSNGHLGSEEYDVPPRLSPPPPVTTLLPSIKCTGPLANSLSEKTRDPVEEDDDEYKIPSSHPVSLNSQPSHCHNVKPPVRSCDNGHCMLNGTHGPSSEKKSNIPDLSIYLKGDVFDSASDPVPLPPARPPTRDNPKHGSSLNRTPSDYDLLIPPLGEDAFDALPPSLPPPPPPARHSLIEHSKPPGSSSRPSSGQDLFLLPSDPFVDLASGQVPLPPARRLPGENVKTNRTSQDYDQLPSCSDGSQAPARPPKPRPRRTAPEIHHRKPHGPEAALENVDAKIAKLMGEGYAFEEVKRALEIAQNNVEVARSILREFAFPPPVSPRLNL

IC50 [1]	EC50 [2]	Compound
1000 to 5000 nM	1000 to 5000 nM	CC1CC(c2cccc(-n3cc(C4CC4)c4cc(CO)[nH]c4c3=O)c2)(c2nncn2C)C1 (stereo not drawn) [Example 8, 4-cyclopropyl-2-(hydroxymethyl)-6-[3-[3-methyl-1-(4-methyl-1,2,4-triazol-3-yl)cyclobutyl]phenyl]-1H-pyrrolo[2,3-c]pyridin-7-one]
1000 to 5000 nM	> 5000 nM	Cn1cnnc1C1(c2cccc(-n3cc(C(F)(F)F)c4nc(CN5CCC(F)(F)C5)[nH]c4c3=O)c2)CC(F)(F)C1 [Example 115, 5-[3-[3,3-difluoro-1-(4-methyl-1,2,4-triazol-3-yl)cyclobutyl]phenyl]-2-[(3,3-difluoropyrrolidin-1-yl)methyl]-7-(trifluoromethyl)-3H-imidazo[4,5-c]pyridin-4-one]
100 to 1000 nM	100 to 1000 nM	C[C@H]1CCCN(Cc2cc3c(C4CC4)cn(-c4cccc(C(F)c5nncn5C)c4)c(=O)c3[nH]2)C1 (stereo partly drawn) [Example 162, 4-cyclopropyl-6-[3-[fluoro-(4-methyl-1,2,4-triazol-3-yl)methyl]phenyl]-2-[[(3S)-3-methylpiperidin-1-yl]methyl]-1H-pyrrolo[2,3-c]pyridin-7-one]
< 100 nM	100 to 1000 nM	COC(c1cccc(-n2cc(C3CC3)c3cc(CN4CCC[C@H](C)C4)[nH]c3c2=O)c1)c1nncn1C (stereo partly drawn) [Example 158]
< 100 nM	100 to 1000 nM	Cn1cnnc1CC1(c2cccc(-n3cc(C4CC4)c4cc(CN5CCC6(CC6)C5)[nH]c4c3=O)c2)COC1 [Example 76, 2-({5-azaspiro[2.4]heptan-5-yl}methyl)-4-cyclopropyl-6-(3-{3-[(4-methyl-4H-1,2,4-triazol-3-yl)methyl]oxetan-3-yl}phenyl)-1H,6H,7H-pyrrolo[2,3-c]pyridin-7-one]
< 100 nM	< 100 nM	CC1CC(c2cccc(-n3cc(C4CC4)c4cc(CNC5(C)CCC5)[nH]c4c3=O)c2)(c2nncn2C)C1 (stereo not drawn) [Example 39, 4-cyclopropyl-6-{3-[3-methyl-1-(4-methyl-4H-1,2,4-triazol-3-yl)cyclobutyl]phenyl}-2-{[(1-methylcyclobutyl)amino]methyl}-1H,6H,7H-pyrrolo[2,3-c]pyridin-7-one]
< 100 nM	< 100 nM	CC1CC(c2cccc(-n3cc(C4CC4)c4cc(CN5CCO[C@H](C)C5)[nH]c4c3=O)c2)(c2nncn2C)C1 (stereo partly drawn) [Example 45, 4-cyclopropyl-6-{3-[3-methyl-1-(4-methyl-4H-1,2,4-triazol-3-yl)cyclobutyl]phenyl}-2-{[(2R)-2-methylmorpholin-4-yl]methyl}-1H,6H,7H-pyrrolo[2,3-c]pyridin-7-one]
< 100 nM	< 100 nM	C[C@H]1CCCN(Cc2cc3c(C4CC4)cn(-c4cccc(C5(c6nncn6C(F)F)CC6(CC6)C5)c4)c(=O)c3[nH]2)C1 [Example 150, 4-cyclopropyl-6-[3-[5-[4-(difluoromethyl)-1,2,4-triazol-3-yl]spiro[2.3]hexan-5-yl]phenyl]-2-[[(3S)-3-methylpiperidin-1-yl]methyl]-1H-pyrrolo[2,3-c]pyridin-7-one]
< 100 nM	1000 to 5000 nM	O=c1c2[nH]c(CNCC3(O)CCC3)cc2c(C2CC2)cn1-c1cccc([C@]2(c3nncn3C(F)F)C[C@H](OC(F)F)C2)c1 [Example 152, 4-cyclopropyl-2-({[(1-hydroxycyclobutyl)methyl]amino}methyl)-6-(m-{(1r,3r)-3-difluoromethoxy-1-[4-(difluoromethyl)-4H-1,2,4-triazol-3-yl]cyclobutyl}phenyl)-1,6-dihydro-1,6-diaza-7-indenone]
< 100 nM	> 5000 nM	CC1CC(c2cccc(-n3cc(C4CC4)c4c(-c5cnn(C)c5)c[nH]c4c3=O)c2)(c2nncn2C)C1 (mixture of isomers) [Example 131, 4-Cyclopropyl-3-(1-methyl-1H-pyrazol-4-yl)-6-{3-[(1R,3S)-3-methyl-1-(4-methyl-4H-1,2,4-triazol-3-yl)cyclobutyl]phenyl}-1H,6H,7H-pyrrolo[2,3-c]pyridin-7-one]
100 to 1000 nM	1000 to 5000 nM	CC(C)[C@H]1CNCCN1Cc1cc2c(C3CC3)cn(-c3cccc(C4(c5nncn5C)CC5(CC5)C4)c3)c(=O)c2[nH]1 [Example 72, 4-cyclopropyl-6-{3-[5-(4-methyl-4H-1,2,4-triazol-3-yl)spiro[2.3]hexan-5-yl]phenyl}-2-{[(2S)-2-(propan-2-yl)piperazin-1-yl]methyl}-1H,6H,7H-pyrrolo[2,3-c]pyridin-7-one]
< 100 nM	1000 to 5000 nM	CC1CC(c2cccc(-n3cc(C4CC4)c4cc(CN5C[C@@H](F)C[C@H](F)C5)[nH]c4c3=O)c2)(c2nncn2C)C1 (stereo partly drawn) [Example 65, 4-cyclopropyl-2-{[(3S,5S)-3,5-difluoropiperidin-1-yl]methyl}-6-{3-[(1r,3s)-3-methyl-1-(4-methyl-4H-1,2,4-triazol-3-yl)cyclobutyl]phenyl}-1H,6H,7H-pyrrolo[2,3-c]pyridin-7-one]
< 100 nM	< 100 nM	CO[C@H]1C[C@](c2cccc(-n3cc(C4CC4)c4cc(CN5CCC[C@H](C)C5)[nH]c4c3=O)c2)(c2nncn2C)C1 [Example 101, trans-4-cyclopropyl-6-[3-[3-methoxy-1-(4-methyl-1,2,4-triazol-3-yl)cyclobutyl]phenyl]-2-[[(3S)-3-methylpiperidin-1-yl]methyl]-1H-pyrrolo[2,3-c]pyridin-7-one]
< 100 nM	< 100 nM	C[C@@H]1CN(Cc2cc3c(C4CC4)cn(-c4cccc(C5(c6nncn6C)CC(F)(F)C5)c4)c(=O)c3[nH]2)CCO1 [Example 94, 4-cyclopropyl-6-[3-[3,3-difluoro-1-(4-methyl-1,2,4-triazol-3-yl)cyclobutyl]phenyl]-2-[[(2R)-2-methylmorpholin-4-yl]methyl]-1H-pyrrolo[2,3-c]pyridin-7-one]
< 100 nM	100 to 1000 nM	CC1CC(c2cccc(-n3cc(C4CC4)c4cc(CN5CC(F)(F)C5)[nH]c4c3=O)c2)(c2nncn2C)C1 (stereo not drawn) [Example 58, 4-cyclopropyl-2-[(3,3-difluoroazetidin-1-yl)methyl]-6-{3-[3-methyl-1-(4-methyl-4H-1,2,4-triazol-3-yl)cyclobutyl]phenyl}-1H,6H,7H-pyrrolo[2,3-c]pyridin-7-one]
< 100 nM	1000 to 5000 nM	Cn1cncc1-c1c[nH]c2c(=O)n(-c3cccc([C@]4(c5nncn5C)C[C@@H](C)C4)c3)cc(C3CC3)c12 (single isomer, unassigned) [Example 34]
100 to 1000 nM	100 to 1000 nM	C[C@H]1CCCN(Cc2cc3c(C4CC4)cn(-c4cccc(C5(Cn6nccn6)CC(F)(F)C5)c4)c(=O)c3[nH]2)C1 [Example 122, 4-cyclopropyl-6-[3-[3,3-difluoro-1-(triazol-2-ylmethyl)cyclobutyl]phenyl]-2-[[(3S)-3-methylpiperidin-1-yl]methyl]-1H-pyrrolo[2,3-c]pyridin-7-one]
< 100 nM	< 100 nM	CC1CC(c2cccc(-n3cc(C4CC4)c4cc(CN(C)C5CCCC5)[nH]c4c3=O)c2)(c2nncn2C)C1 (stereo not drawn) [Example 47, 2-{[cyclopentyl(methyl)amino]methyl}-4-cyclopropyl-6-{3-[3-methyl-1-(4-methyl-4H-1,2,4-triazol-3-yl)cyclobutyl]phenyl}-1H,6H,7H-pyrrolo[2,3-c]pyridin-7-one]
